The target of test [1] is T1, AaAChE1 (Aedes aegypti, UniProt Q6A2E2). The test is described as follows: biochemical.
In test [2] the target is T2, mAChE (Mus musculus, UniProt P21836). As to conditions: read-out: IC 50-values of reversible inhibitors; cited from earlier work.
Test [3] deals with T3, hAChE (Homo sapiens, UniProt P22303). Particulars: read-out: IC 50-values of reversible inhibitors; cited from earlier work.
Test [4] concerns the target T1, AaAChE1. It is filed as biochemical.
For a further test, the target named is AgAChE1 (Anopheles gambiae, UniProt Q869C3). In kind it is biochemical.
For test [5], the target named is T4, AgAChE1-G119S (Anopheles gambiae, UniProt Q869C3, G280S). In kind it is biochemical.
Test [6] addresses T2, mAChE. It is filed as biochemical.
Test [7] addresses T3, hAChE. In kind it is biochemical.
Test [8] concerns AChE1 vs vertebrate AChEs. It is filed as biochemical.
The target in test [9] is T4, AgAChE1-G119S. Particulars: cited from earlier work.
The target of test [10] is Aedes aegypti AChE1 (AaAChE1) (Aedes aegypti, UniProt Q6A2E2). In kind it is biochemical.
Test [11] has as its target Anopheles gambiae AChE1 (AgAChE1) (Anopheles gambiae, UniProt Q869C3). It is filed as biochemical.
In test [12] the target is T5, Anopheles gambiae AChE1-G119S (Anopheles gambiae, UniProt Q869C3, G280S). In kind it is biochemical.
Test [13] has as its target T6, Mus musculus AChE (mAChE) (Mus musculus, UniProt P21836). In kind it is biochemical.
In test [14] the target is T7, Homo sapiens AChE (hAChE) (Homo sapiens, UniProt P22303). It is filed as biochemical.
Test [15] concerns the target T5, Anopheles gambiae AChE1-G119S. As to conditions: cited from earlier work.
Test [16] addresses T6, Mus musculus AChE (mAChE). As to conditions: cited from earlier work.
Test [17] addresses T7, Homo sapiens AChE (hAChE). Particulars: cited from earlier work.
Test [18] deals with T2, mAChE. Briefly: biochemical. Particulars: IC 50-values of reversible inhibitors.

For orientation: Km means the substrate concentration at which the rate is half of its maximum.

Several values for one entry are separate records, joined by “and”; a condition that tells them apart may be missing. Identical values can stand only once. Like-named read-outs stand apart in the source and are kept apart here. Marks after values point to notes of the source that are not given here.

On to `CCN1CCC[C@@H]1CNC(=O)c1cc([N+](=O)[O-])c(N(C)C)cc1OC` [C5685R], for which the results for the IC50 against AaAChE1 [1], at mAChE [2] and on hAChE [3] were > 30 µM, 0.7 µM and 1.3 µM, respectively.

For `CNC(=O)Oc1ccc2c(c1)[C@]1(C)CCN(C)[C@@H]1N2C` [Eserine, eserine], the “ki-values of covalent inhibitors” value is 24.8 (18.1–31.5) μM^-1 min^-1 and 24,8 μM^-1 min^-1 at AaAChE1 [4]; 27.3 (23.8–30.8) μM^-1 min^-1 and 27,26 μM^-1 min^-1 on AgAChE1; 1.18 (0.63–1.72) μM^-1 min^-1 and 1,18 μM^-1 min^-1 at AgAChE1-G119S [5]; 1.36 (1.15–1.56) μM^-1 min^-1 and 1,36 μM^-1 min^-1 at mAChE [6]; 2.66 (2.28–3.05) μM^-1 min^-1 and 2,66 μM^-1 min^-1 on hAChE [7]. For the same molecule, the “fold more potent on AChE1 than on vertebrate AChEs (k i)” value in test [8] is “approximately 10 fold”.

As to `CNC(=O)Oc1ccccc1OC(C)C` [Propoxur, propoxur], the “ki-values of covalent inhibitors” value was 1.20 (1.05–1.35) μM^-1 min^-1 and 1,2 μM^-1 min^-1 on AaAChE1 [4]; 1.11 (1.02–1.21) μM^-1 min^-1 and 1,11 μM^-1 min^-1 at AgAChE1. In addition, the “inhibition of the G119S mutant” value against AgAChE1-G119S [5] is listed as “only marginal inhibition”. The “fold lower inhibition constants than eserine” value in test [8] is on record as 15–30 fold. Besides, the “fold more potent on AChE1 than on vertebrate AChEs (k i)” value in test [8] is given as “approximately 10 fold”. Further, on AgAChE1-G119S [9], the ki is recorded as 0,00015^b µM^-1 min^-1.

With `CC(=O)SCC[N+](C)(C)C` [ATChI, acetylthiocholine iodide], the Km in [10] came to 25 µM; in [11], 27 µM; in test [13], 84 µM; in test [14], 146 µM. The Vmax is given as 406 (389–422) mA/min in test [10]; 528 (505–552) mA/min in test [11]; 318 (310–326) mA/min in [12]; 725 (694–756) mA/min in test [13]; 821 (782–860) mA/min in test [14]. For the same molecule, the “Vmax in percent of Vmax(ATChI)” value in [10], in [11], in test [12], in [13] and in test [14] was 100^a percent of Vmax(ATChI) each time. Besides, the Kcat was 4^b s^-1 in [15], 2333^c s^-1 in [16] and 6167^d s^-1 in test [17].

In the case of `CCN1CCC[C@H]1CNC(=O)c1cc([N+](=O)[O-])c(N(C)C)cc1OC` [C5685S], the IC50 on mAChE [2] is 0.7 µM; at hAChE [3], 1.4 µM.

Take `CCC(=O)SCC[N+](C)(C)C` [PTChI, propionylthiocholine iodide]: the Km was 20 µM in test [10], 25 µM in test [11], 59 µM in test [13] and 150 µM in test [14]. The Vmax is recorded as 266 (258–275) mA/min in test [10]; 407 (393–421) mA/min in [11]; 105 (87–123) mA/min in test [12]; 367 (354–380) mA/min in [13]; 429 (415–442) mA/min in test [14]. The “Vmax in percent of Vmax(ATChI)” value in [10] is on record as 65,5^a percent of Vmax(ATChI); in test [11], 77,1^a percent of Vmax(ATChI); in [13] it was 50,6^a percent of Vmax(ATChI); in test [14], 52,3^a percent of Vmax(ATChI).

For the molecule `CCCC(=O)SCC[N+](C)(C)C` [BTChI, butyrylthiocholine iodide], the results for the Michaelis-Menten constant (Km) in test [10] and in test [11] were 45 µM and 36 µM, respectively. The Vmax in test [10] is 38 (36–40) mA/min; in test [11], 58 (55–61) mA/min; in test [12], 34 (24–45) mA/min.

Consider `CCN(CC)C(C)CN1c2ccccc2Sc2ccccc21` (centres unmarked) [Ethopropazine, ethopropazine], for which the IC50 on mAChE [18] is ~1000 µM.

The record behind these values is PMC4598118 (PLoS ONE, 2015).
